Results taken from publication PMC5344255, “Design, Synthesis and Biochemical Evaluation of Novel Selective Estrogen Receptor Ligand Conjugates Incorporating an Endoxifen-Combretastatin Hybrid Scaffold” (Biomedicines, 2016).

Legend:
[1] = system: MDA-MB-231 human breast cancer cells; assay: MTT assay for antiproliferative effects in MDA-MB-231; type: cell-based; details: MDA-MB-231, MTT assay
Description: The human breast carcinoma cell line, MCF-7, was purchased from the European Collection of Animal Cell Cultures (ECACC). The cells were maintained in MCF-7 complete medium; consisting of Eagle’s Minimum Essential Medium (MEM) supplemented with 10% (v/v) Foetal Bovine Serum (FBS), 2 mM L-glutamine, 100 μg/mL penicillin/streptomycin and 1% (v/v) non-essential amino acids. […] The human breast carcinoma cell line, MDA, was purchased from the European Collection of Animal Cell Cultures (ECACC). The cells were maintained in MDA complete medium; consisting of Dulbecco’s Modified Eagle’s Medium (D-MEM) supplemented with 10% (v/v) Foetal Bovine Serum (FBS), 2 mM L-glutamine, 100 μg/mL penicillin/streptomycin. […] The MTT assay was performed according to the reported protocol. The tetrazolium salt, 3-(4,5-dimethylthiazol-2-yl)-2,5-diphenyltetrazolium bromide (MTT) is taken up only by metabolically active cells and cleaved to form a formazan dye by mitochondrial dehydrogenases. […] Graphs of percentage cell viability versus concentration of the subject compound were processed using PRISM [31].

[2] = system: MCF-7 human breast cancer cells; assay: MTT assay for antiproliferative effects in MCF-7; type: cell-based
Description: The human breast carcinoma cell line, MCF-7, was purchased from the European Collection of Animal Cell Cultures (ECACC). The cells were maintained in MCF-7 complete medium; consisting of Eagle’s Minimum Essential Medium (MEM) supplemented with 10% (v/v) Foetal Bovine Serum (FBS), 2 mM L-glutamine, 100 μg/mL penicillin/streptomycin and 1% (v/v) non-essential amino acids. Cell cultures were maintained at 37 °C under a humidified atmosphere of 5% CO2/95% O2. The human breast carcinoma cell line, MDA, was purchased from the European Collection of Animal Cell Cultures (ECACC). The cells were maintained in MDA complete medium; consisting of Dulbecco’s Modified Eagle’s Medium (D-MEM) supplemented with 10% (v/v) Foetal Bovine Serum (FBS), 2 mM L-glutamine, 100 μg/mL penicillin/streptomycin. Cell cultures were maintained at 37 °C under a humidified atmosphere of 5% CO2/95% O2. The MTT assay was performed according to the reported protocol. The tetrazolium salt, 3-(4,5-dimethylthiazol-2-yl)-2,5-diphenyltetrazolium bromide (MTT) is taken up only by metabolically active cells and cleaved to form a formazan dye by mitochondrial dehydrogenases. Assays where repeated in three experiments performed in triplicate (unless otherwise stated) and reported results represent the mean value ± standard error mean. Graphs of percentage cell viability versus concentration of the subject compound were processed using PRISM [31].

[3] = system: MDA-MB-231 human breast cancer cells; assay: Lactate dehydrogenase (LDH) cytotoxicity assay in MDA-MB-231; type: cell-based; details: % cell lysis at 10 μM
Description: (§1) In this assay, the release of cytoplasmic lactate dehydrogenase (LDH) is used as a measure of cell lysis. MCF-7 and MDA-MB-231 cells were seeded at a density of 1 × 10^4 cells/well in a 96-well plate and incubated for 24 h. The cells were then dosed with 2 μL volumes of the test compounds, over the concentration range 1 nM–50 μM. Cytotoxicity was determined using the CytoTox 96 nonradioactive cytotoxicity assay (Promega, Madison, WI, USA) following the manufacturer’s protocol.

[4] = HPLC stability study in phosphate buffer; type: physicochemical; details: pH values in the range 4–9
Description: Analytical high-performance liquid chromatography (HPLC) stability studies were performed using a Symmetry® column (C18, 5 µm, 4.6 × 150 mm), a Waters 2487 Dual Wavelength Absorbance detector, a Waters 1525 binary HPLC pump and a Waters 717 plus Autosampler (Waters Corporation, Milford, MA, USA). Samples were detected at wavelength of 254 nm. All samples were analysed using acetonitrile (80%):water (20%) as the mobile phase over 10 min and a flow rate of 1 mL/min. Stock solutions are prepared by dissolving 5mg of compound in 10 mL of mobile phase. Phosphate buffers at the desired pH values (4, 7.4, and 9) were prepared in accordance with the British Pharmacopoeia monograph 2015. 30 µL of stock solution was diluted with 1 mL of appropriate buffer, shaken and injected immediately. Samples were withdrawn and analysed at time intervals of t = 0 min, 5 min, 30 min, 60 min, 90 min, 120 min, 24 h and 48 h.

[5] = system: MCF-7 human breast cancer cells; assay: Lactate dehydrogenase (LDH) cytotoxicity assay in MCF-7; type: cell-based; details: % cell lysis at 10 µM
Description: as §1

[6] = system: Ishikawa cell line of human endometrial adenocarcinoma cells; assay: Ishikawa assay, estrogen stimulation of alkaline phosphatase activity; type: cell-based
Description: The Ishikawa assay is used to measure estrogen stimulation of alkaline phosphatase enzyme activity (AlkP) by the Ishikawa cell line of human endometrial adenocarcinoma cells. The Ishikawa assay provides a measure of the agonist activity of a compound. […] The assay was carried out following the method of Littlefield et al.. The batch of Ishikawa cells were obtained as a gift from Professor R. Hochberg—who developed the alkaline phosphatase assay in Yale University, CT, USA.
The Ishikawa assay is used to measure estrogen stimulation of alkaline phosphatase enzyme activity (AlkP) by the Ishikawa cell line of human endometrial adenocarcinoma cells. […] The conjugate was dosed in duplicate.

[7] = Homo sapiens, MCF7, MCF-7, MTT assay, mean of at least three experiments in triplicate
[8] = Homo sapiens, MCF7, MCF-7, MTT assay, values in nM

IC50 [1] [µM]	IC50 [2, 7] [nM]	melting point [°C]	SMILES	% Cell Death at 10 μM [3] [%]	% Cell Death at 10 μM [5] [%]	also measured
51	2080	–	CCC(=C(c1ccc(O)cc1)c1ccc(OCCN(C)C(=O)/C(=C/c2cc(OC)c(OC)c(OC)c2)c2ccc(OC)cc2)cc1)c1ccccc1 (mixture of isomers) [Compound 31, (E)-N-(2-{4-[(E/Z)-1-(4-Hydroxyphenyl)-2-phenylbut-1-enyl]phenoxy}ethyl)-2-(4-methoxyphenyl)-N-methyl-3-(3,4,5-trimethoxyphenyl) acrylamide]	0	1	half-life at 14.6 µg/mL [4]: > 24 h
> 50	2350	–	CCC(=C(c1ccc(O)cc1)c1ccc(OCCN(C)C(=O)/C(=C/c2ccc(Br)cc2)c2cc(OC)c(OC)c(OC)c2)cc1)c1ccc(O)cc1 (mixture of isomers) [Compound 42, (E)-N-(2-{4-[(E/Z)-1,2-Bis-(4-hydroxyphenyl)but-1-enyl]phenoxy}ethyl)-3-(4-bromophenyl)-N-methyl-2-(3,4,5-trimethoxyphenyl)acrylamide]	9	7	–
30.3	180	–	CCC(=C(c1ccc(O)cc1)c1ccc(OCCN(C)C(=O)/C(=C/c2ccc(OC)c(F)c2)c2cc(OC)c(OC)c(OC)c2)cc1)c1ccccc1 (mixture of isomers) [Compound 43, (E)-3-(3-Fluoro-4-methoxyphenyl)-N-(2-{4-[(E/Z)-1-(4-hydroxyphenyl)-2-phenylbut-1-enyl]phenoxy}ethyl)-N-methyl-2-(3,4,5-trimethoxyphenyl) acrylamide]	0	2	–
1.85	194	–	CCC(=C(c1ccc(O)cc1)c1ccc(OCCN(C)C(=O)/C(=C/c2ccc(OC)c(F)c2)c2cc(OC)c(OC)c(OC)c2)cc1)c1ccc(O)cc1 (mixture of isomers) [Compound 44, (E)-N-(2-{4-[(E/Z)-1,2-Bis-(4-hydroxyphenyl)but-1-enyl]phenoxy}ethyl)-3-(3-fluoro-4-methoxyphenyl)-N-methyl-2-(3,4,5-trimethoxyphenyl)acrylamide]	14	10	–
49.7	6150	–	CCC(=C(c1ccc(O)cc1)c1ccc(OCCN(C)C(=O)/C(=C/c2ccc(OC)c(N)c2)c2cc(OC)c(OC)c(OC)c2)cc1)c1ccc(O)cc1 (mixture of isomers) [Compound 46, (E)-3-(3-Amino-4-methoxyphenyl)-N-(2-{4-[(E/Z)-1,2-bis-(4-hydroxyphenyl)but-1-enyl]phenoxy}ethyl)-N-methyl-2-(3,4,5-trimethoxyphenyl) acrylamide]	0	6	–
–	< 10000	199 to 202	COc1ccc(/C=C(/C(=O)O)c2cc(OC)c(OC)c(OC)c2)cc1N [Compound 16, (E)-3-(3-Amino-4-methoxyphenyl)-2-(3,4,5-trimethoxyphenyl)acrylic acid]	–	–	IC50 ([2]; MCF-7, MTT assay, mean of at least three experiments in triplicate): 6700 nM
–	> 50000	227 to 230	COc1cc(/C(=C\c2ccc(Br)cc2)C(=O)O)cc(OC)c1OC [Compound 17, (E)-3-(4-Bromophenyl)-2-(3,4,5-trimethoxyphenyl)acrylic Acid]	–	–	–
–	> 50000	211 to 213	COc1cc(/C(=C\c2ccc(F)cc2)C(=O)O)cc(OC)c1OC [Compound 18, (E)-3-(4-Fluorophenyl)-2-(3,4,5-trimethoxyphenyl)acrylic acid]	–	–	–
–	26100	190 to 193	COc1cc(/C(=C\c2ccc(C)cc2)C(=O)O)cc(OC)c1OC [Compound 19, (E)-3-p-Tolyl-2-(3,4,5-trimethoxyphenyl)acrylic acid]	–	–	–
–	10600	194 to 196	COc1cc(/C(=C\c2ccc(SC)cc2)C(=O)O)cc(OC)c1OC [Compound 20, (E)-3-(4-Methylsulfanylphenyl)-2-(3,4,5-trimethoxyphenyl)acrylic acid]	–	–	–
–	15300	238 to 240	COc1cc(/C(=C\c2ccc3ccccc3c2)C(=O)O)cc(OC)c1OC [Compound 22, (E)-3-Naphthalen-2-yl-2-(3,4,5-trimethoxyphenyl)acrylic acid]	–	–	–
–	> 50000	106 to 108	COc1ccc(/C(=C\c2cc(OC)c(OC)c(OC)c2)C(=O)N2CCCCC2)cc1 [Compound 47, (E)-2-(4-Methoxyphenyl)-1-(piperidin-1-yl)-3-(3,4,5-trimethoxyphenyl)prop-2-en-1-one]	–	–	–
–	–	–	CC/C(=C(\c1ccccc1)c1ccc(OCCN(C)C)cc1)c1ccccc1 [Tamoxifen, reference compound]	0	–	estrogenic activity (alkaline phosphatase stimulation) ([6]; compound dosed individually): displays some estrogenic activity at higher concentrations; estrogen stimulation (alkaline phosphatase) in mixture with estradiol ([6]; dosed with 1 nM estradiol spike): estrogen stimulation at low concentration while a reduction occurs as the concentration of Tamoxifen is increased

SMILES	IC50 [1] [µM]	IC50 [2, 7] [nM]	melting point [°C]	% Cell Death at 10 μM [3] [%]	% Cell Death at 10 μM [5] [%]	also measured
CCC(=C(c1ccc(O)cc1)c1ccc(OCCN(C)C(=O)/C(=C/c2ccc(OC)c(O)c2)c2cc(OC)c(OC)c(OC)c2)cc1)c1ccccc1 (mixture of isomers) [Compound 27, (E)-3-(3-Hydroxy-4-methoxyphenyl)-N-(2-{4-[(E/Z)-1-(4-hydroxyphenyl)-2-phenylbut-1-enyl]phenoxy}ethyl)-N-methyl-2-(3,4,5-trimethoxyphenyl) acrylamide]	2.67	33	–	17	10	IC50 [2, 8]: 0.033 nM; half-life at 14.6 µg/mL [4]: > 24 h
CCC(=C(c1ccc(O)cc1)c1ccc(OCCN(C)C(=O)/C(=C/c2ccc(OC)c(N)c2)c2cc(OC)c(OC)c(OC)c2)cc1)c1ccccc1 (mixture of isomers) [Compound 45, (E)-3-(3-Amino-4-methoxyphenyl)-N-(2-{4-[(E/Z)-1-(4-hydroxyphenyl)-2-phenylbut-1-enyl]phenoxy}ethyl)-N-methyl-2-(3,4,5-trimethoxyphenyl) acrylamide]	7.11	959	–	0	8	–
COc1ccc(/C=C\c2cc(OC)c(OC)c(OC)c2)cc1O [Compound 26, Combretastatin A-4, reference compound]	0.043	8	–	4	13	IC50 [2, 8]: 8 nM
